Experimental data from patent US20230218639A1, “USE OF OXYGENATED CHOLESTEROL SULFATES FOR TREATING NEUROLOGICAL CONDITIONS, NEURODEGENERATIVE DISEASES, AND ADDICTION” (Durect Corporation, priority 2020, published 2023).

Assays:
DNMT1 = DNMT1 (Homo sapiens, UniProt P26358); assay: DNMT1 activity assay (Poly(dI-dC) substrate, ^3H-SAM); assay type: biochemical; conditions: read-out: IC50, DNMT-1 activity
Method: For the DNMT1 activity assay, the substrate solution, 0.001 mg/ml Poly(dI-dC):Poly(dI-dC) in 50 mM Tris-HCl, pH 7.5, 50 mM NaCl, 5 mM EDTA, 5 mM DTT, 1 mM PMSF, 5% glycerol, 0.01% Brij35, 1% DMSO was used. For the DNMT3a/3b activity assay, 0.0075 mg/ml Lambda DNA in 50 mM Tris-HCl, pH 7.5, 50 mM NaCl, 5 mM EDTA, 5 mM DTT, 1 mM PMSF, 5% glycerol, 1% DMSO, was used. The indicated DNMT1, DNMT3a, or DNMT3b was added to the appropriate substrate solution and gently mixed. […] The mixtures were first incubated for 15 min, then ^3H-SAM was added to the reaction mixture to initiate the reaction, and the mixture was incubated for 60 min at 30° C. Following incubation, the reaction mixture was finally transferred to filter-paper for detection of radioactivity counts.

[1] = system: CpG sites in promoter regions of LINE-1 element, Huh-7 cells; assay: LINE-1 global methylation assay; assay type: cell-based, human; conditions: Huh-7 cells in HG media, 25HC3S for 4 hours
Method: Each sample, 2 μg, was sent to […], Inc. (Hopkinton, Mass.) for analysis of global methylation bisulfite sequencing. The same samples, 6 μg, were sent to Novogene Co., Ltd (Tianjin, China) for analysis of whole genome bisulfite sequencing (WGBS). Total RNA was isolated using the Promega SV total RNA isolation system (Madison, Wis.) with DNase treatment. […] Real-time RT-PCR was performed using SYBR Green as the indicator on ABI 7500 Fast Real-Time PCR System (Applied Biosystems, Foster City, Calif.). Amplifications of β-actin or GAPDH were used as internal controls. Relative messenger RNA (mRNA) expression was quantified with the comparative cycle threshold (Ct) method using the primer set shown in Table 1.1 and was expressed as 2^-ΔΔCt. […] PCR reaction and product purification were performed as per the manufacturer's protocol (GE Healthcare Life Sciences). The PCR products, 10 μl, were sequenced by Pyrosequencing on the PSQ96 HS System following the manufacturer's instructions (Pyrosequencing, Qiagen). The methylation status of each CpG site was determined individually as an artificial C/T SNP using QCpG software (Pyrosequencing, Qiagen). The methylation level at each CpG site was calculated as the percentage of the methylated alleles divided by the sum of all methylated and unmethylated alleles. The mean methylation level was calculated using methylation levels of all measured CpG sites within the targeted region of each gene. Each experiment included non-CpG cytosines as internal controls to detect incomplete bisulfite conversion of the input DNA. In addition, a series of unmethylated and methylated DNA were included as controls in each PCR assay. Furthermore, PCR bias testing was performed by mixing unmethylated control DNA with in vitro methylated DNA at different ratios (0%, 5%, 10%, 25%, 50%, 75%, and 100%), followed by bisulfite modification, PCR, and Pyro-sequencing analysis.

[2] = parameters: species or system rats; conditions: rat, in vivo, po, 75 mg/kg
Method: The terminal elimination phase T1/2 was 27.3 hours.

Chain of DNMT1 (P26358 whole entry): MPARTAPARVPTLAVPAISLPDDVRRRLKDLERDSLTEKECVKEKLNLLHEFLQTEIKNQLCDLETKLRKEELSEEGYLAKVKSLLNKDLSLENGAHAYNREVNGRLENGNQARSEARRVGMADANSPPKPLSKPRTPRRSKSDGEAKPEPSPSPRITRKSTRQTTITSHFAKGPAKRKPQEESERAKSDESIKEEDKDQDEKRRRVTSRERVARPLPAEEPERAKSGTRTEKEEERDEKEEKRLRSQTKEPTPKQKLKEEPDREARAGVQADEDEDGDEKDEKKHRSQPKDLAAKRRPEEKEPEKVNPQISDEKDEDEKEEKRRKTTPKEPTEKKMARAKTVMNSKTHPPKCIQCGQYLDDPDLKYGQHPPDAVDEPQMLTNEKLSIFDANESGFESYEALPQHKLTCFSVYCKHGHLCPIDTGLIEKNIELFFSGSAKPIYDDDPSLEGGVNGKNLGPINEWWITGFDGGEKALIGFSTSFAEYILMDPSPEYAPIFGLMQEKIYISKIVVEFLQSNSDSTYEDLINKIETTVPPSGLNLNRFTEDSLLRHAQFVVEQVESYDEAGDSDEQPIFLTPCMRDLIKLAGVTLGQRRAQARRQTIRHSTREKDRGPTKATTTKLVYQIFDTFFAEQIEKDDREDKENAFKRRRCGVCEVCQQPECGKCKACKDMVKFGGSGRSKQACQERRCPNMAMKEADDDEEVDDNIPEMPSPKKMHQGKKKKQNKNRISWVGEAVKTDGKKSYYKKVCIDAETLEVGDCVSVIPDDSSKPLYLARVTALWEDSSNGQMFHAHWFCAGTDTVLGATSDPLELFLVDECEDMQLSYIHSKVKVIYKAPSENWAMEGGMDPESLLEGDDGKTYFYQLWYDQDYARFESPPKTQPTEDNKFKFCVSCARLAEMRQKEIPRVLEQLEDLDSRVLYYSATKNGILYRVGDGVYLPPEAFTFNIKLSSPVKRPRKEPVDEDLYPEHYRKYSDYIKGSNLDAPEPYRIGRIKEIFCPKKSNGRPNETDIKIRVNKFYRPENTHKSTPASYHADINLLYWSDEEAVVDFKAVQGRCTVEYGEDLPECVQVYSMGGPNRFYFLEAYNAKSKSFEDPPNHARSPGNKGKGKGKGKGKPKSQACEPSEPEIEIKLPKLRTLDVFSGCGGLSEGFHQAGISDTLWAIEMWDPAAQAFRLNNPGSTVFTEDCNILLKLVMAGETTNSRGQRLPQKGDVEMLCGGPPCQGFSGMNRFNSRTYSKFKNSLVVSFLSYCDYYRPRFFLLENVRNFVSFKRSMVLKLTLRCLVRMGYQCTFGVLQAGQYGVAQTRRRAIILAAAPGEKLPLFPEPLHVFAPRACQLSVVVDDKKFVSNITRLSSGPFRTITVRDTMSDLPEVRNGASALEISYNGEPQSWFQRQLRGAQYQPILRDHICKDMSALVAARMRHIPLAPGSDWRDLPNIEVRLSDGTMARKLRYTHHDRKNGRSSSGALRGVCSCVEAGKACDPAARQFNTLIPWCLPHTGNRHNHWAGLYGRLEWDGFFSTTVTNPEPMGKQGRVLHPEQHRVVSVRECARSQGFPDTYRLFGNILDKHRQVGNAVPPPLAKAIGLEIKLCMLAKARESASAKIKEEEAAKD

For `C[C@H](CCCC(C)(C)O)[C@H]1CC[C@H]2[C@@H]3CC=C4C[C@@H](OS(=O)(=O)O)CC[C@]4(C)[C@H]3CC[C@]12C` [25HC3S, 5-Cholesten-3β, 25-diol 3-sulfate], which IC50 (DNMT1) is on record?
Its IC50 is 4.04 µM.

And the “Reduction of methylation (demethylation) at Pos1 of LINE-1” value [1]?
Its value is −5%.

What about the “Reduction of methylation (demethylation) at Pos3 of LINE-1” value [1] of the same compound?
Its value is −10%.

And the “Reduction of methylation (demethylation) at Pos 4 of LINE-1” value [1]?
The value was −5.6%.

What about the “terminal elimination phase T1/2” value ([2]; Sprague Dawley) of the same compound?
Its value is 27.3 h.

What about the “plasma AUClast” value [2] of the same compound?
Its value is 96,400 h·ng equiv./g.

What about the “plasma Cmax” value [2] of the same compound?
The value was 3800 ng equiv./g.
